For series [1], the system named is HCT116 p53+/+ cells. As to the kind of experiment: WST-8 cell viability assay in HCT116 p53+/+ cells. Type of series: cell-based, human. Conditions: 0, 5, 10, 15, 20 μM, 12 to 24 hours. The procedure: First, HCT116 p53^+/+ cells were cultured in a thermos-hygrostat incubator at 37° C., 5% CO2 in DMEM containing 10% FBS and 1% Pen-Step.
For a WST-8 cell viability assay, the HCT116 p53+/+ cells were seeded at a density of 2×10^4 cells/well in […] culture medium in a 96-well plate and cultured for 24 hours. […] After culturing at 37° C. for 12 to 24 hours, WST-8 reagent (Abcam Inc., UK) was added to each well, and culture was performed for 30 minutes. The absorbance at […] was measured using a microplate reader (PerkinElmer Inc., USA).
(Tetrazolium assays rely on reduction of a dye to a coloured formazan, in cell work by metabolically active cells.)

In series [2] the test system is p53. As to the kind of experiment: Immunoblotting kinetic analysis of MDM2 and p53. The settings on record: 10 μM; HCT116 p53+/+ cells. Type of series: cell-based, human. Here is the method:
The cells were harvested, washed with cold PBS, and lysed with a radio-immunoprecipitation assay (RIPA) buffer. The cell lysate was centrifuged at 4° C. and 13,000 rpm for 20 minutes, and the supernatant was collected. The protein amount of the lysate was quantified using a bicinchoninic acid (BCA) protein assay kit (Pierce Inc., USA). The supernatant of the cell lysate was loaded on 10% sodium dodecyl sulfate-polyacrylamide gel electrophoresis (SDS-PAGE) to separate proteins, which were transferred to a polyvinylidene fluoride (PVDF) membrane, and the membrane was treated with 5% skim milk in tris-buffered saline with Tween® 20 (TBS-T) buffer (room temperature), and after one hour, washed with TBS-T buffer (2×) for one minute. After treatment with primary antibodies (specific primary antibodies) (p53, MDM2, or vinculin), the membrane was incubated overnight at 4° C. The membrane was washed with TBS-T for 10 minutes (5×), treated with horseradish peroxidase (HRP)-conjugated secondary antibodies (room temperature, 1 h), and then washed with TBS-T for 10 minutes (5×) and analyzed using a LAS 3000 luminescent image analyzer (Fujifilm Co., LTD., Japan).
(Immunoblotting shows a protein as a band on a membrane.)

Series [3] relates to HCT116 cells. As to the kind of experiment: In vivo anticancer effect in HCT116 xenografted mice. Conditions: 76.9 nmol/100 μl saline i.v., once every two days, five times; 14 days. Here is the method: Body weight and tumor volume of each group were measured every 0, 2, 4, 6, 8, 10, 12, and 14 days.
A short description of series [4]: Biodistribution of Cy5.5-labeled SdPN in xenografted mice (fluorescence, IVIS).
Procedure: In order to verify the tumor specificity of the SdPN according to the present invention, an analysis was performed using a cancer animal model (xenograft) in which human cancer cells were cultured in immunodeficient mice. Specifically, a mixture of 50 mL of Matrigel (Corning, NY, USA) and HCT116 cells (5× 10^6 cells in 50 mL of saline) was subcutaneously injected into the hind legs of 5-week-old nu/nu male nude mice (nu/nu athymic). The tumor volume was analyzed using a caliper [tumor volume=(major axis)×(minor axis)^2/2]. […] At this time, the dose was 100 μl of saline injected at a concentration of 400 μM based on Cy5.5 (40 nmol/100 μl saline).
Fluorescence images were obtained at various times after the intravenous injection.
The isolated cancer tissues were treated with 4% paraformaldehyde, and their moisture content was assessed with sucrose.
The mark [5] stands for this setting: 24 hours after i.v. administration, Cy5.5-labeled.

As to `COc1cc(C(=O)O)ccc1NC(=O)[C@@H]1N[C@@H](CC(C)(C)C)[C@](C#N)(c2ccc(Cl)cc2F)[C@H]1c1cccc(Cl)c1F` [idasanutlin], in series [1], the “viability of HCT116 p53+/+ cells (cancer cell apoptotic effect)” value is reported as “higher anticancer effect than that of the SdPN (6:4) of Example 8”. The “PPI inhibition action speed” value in series [2] is “three”. For the same compound, in series [3], the cancer growth entry is listed as “significantly inhibited”.
Regarding sulfo-cyanine 5.5 [Cy5.5], in series [4] (40 nmol/100 μl saline i.v.), the “localization to the cancer area (IVIS)” value is reported as “failed to be specifically localized to the cancer area” and the “removal over time (IVIS)” value was “rapidly removed over time”. For the same compound, in series [4] (setting [5]), the “accumulation in cancer tissues (frozen sections)” value is on record as “no significant accumulation”; the “accumulation in major organs and cancer tissues (ex vivo fluorescence)” value is reported as “significant accumulation neither in major organ tissues nor cancer tissues”. The “fluorescence of tail vein blood over time (in vivo retention)” value in series [4] (after i.v. administration, Cy5.5-labeled) is given as “completely eliminated within a short time”.

These data come from patent publication US20250177479A1, “DEPSIPEPTIDE-BASED AMPHIPHILIC BULIDING BLOCK TO INHIBIT PROTEIN-PROTEIN INTERACTIONS, NANOSTRUCTURE COMPRISED THEREOF AND USES THEREOF” (INDUSTRY-ACADEMIC COOPERATION FOUNDATION, YONSEI UNIVERSITY, priority 2023, published 2025).
